For data set [1] the following is noted: 45 mg over 5 to 10 weeks; cited from earlier work.
A further data set relates to LDL. Kind of data set: LDL antioxidation test (CuCl2-initiated LDL oxidation, lag time). Type of data set: biochemical, human. Conditions: Table 2, 10 μM; for Lag Time: control 20 min.
For data set [2], the system named is rat isolated aortic rings. The data set is described as follows: Vasodilatory capacity in noradrenaline pre-constricted aortic rings and mechanism of action (Protocol 2a/2b). As for the experimental part: (§1) Male Sprague-Dawley rats (250±50 g) were gassed with 80% CO2 and 20% O2 until killed. The thoracic aorta was excised and quickly placed in ice-cold Krebs modified solution composed of NaCl […], […] 4.7 mM, MgSO4 7H2O 1.17 mM, NaHCO3 25 mM, KH2PO4 1.18 mM, CaCl2 2.5 mM, glucose 11 mM and EDTA 0.03 mM. It was then trimmed of fat and connective tissue and cut into 2-3 mm wide rings. Each ring was mounted on two parallel stainless steel hooks in a single water-jacketed 3 ml organ bath containing modified Krebs solution maintained at 37° C. and bubbled with 95% O2 plus 5% CO2. The lower hook was attached to a movable support leg and the upper hook to an FTO3 force transducer (Grass Scientific Instruments, Mitutoyo, Japan) for isometric recordings. Changes in force were amplified (Quadbridge amplifier, Scientific Concepts Inc., Victoria, Australia) and recorded on a MacLab 8E data acquisition system (Adinstruments Pty Ltd., NSW, Australia) linked to an Apple computer (Apple Computer Inc, Cupertina, Calif.). Rings were set at an initial tension of 2 g and allowed to equilibrate for 30 minutes after which time they were re-set to 2 g tension before the commencement of each experimental protocol.
A full concentration response to noradrenaline was obtained. From this the concentration producing a submaximal contraction of approximately 80% was selected (0.03-0.3 μM). The ring was then constricted with this submaximal concentration and allowed to plateau before full concentration-relaxation curves were obtained to β-estradiol and Cpds. 5, 7, 8 and 12 and the vehicle DMSO (at equi-volume). Only one compound was studied with any one ring from any one animal.
Full relaxation curves were obtained to Cpds. 5, 7, 8 and 12 and β-estradiol in the absence and presence of the endothelium (rings were denuded of endothelium by gentle rotation of the lumen against a rough surface), the nitric oxide synthase inhibitor nitro-L-arginine (NOLA 10 μM; with the exception of Cpd. 8, due to limited supply of the compound), KCl 40 mM (to inhibit endothelium derived hyperpolarising factor), the cyclo-oxygenase inhibitor indomethacin (10 μM) and the soluble guanylate cyclase inhibitor 1H-[1,2,4]oxadiazolo[4,3-a]quinoxalin-1-one (ODQ; 10 μM). Only one compound with only one intervention was tested on any one ring from any one animal.
(§2) Contractile responses are expressed in g tension (mean+standard error of the mean). Dilatory responses are expressed as a percentage of the contractile force generated by the pre-constricting agent used. Individual concentration-response curves for noradrenaline and acetylcholine±the interventions used were fitted to a logistic equation of the form […] where E is the response, M is the maximum response and K is the concentration eliciting 50% of the maximum response (ie neg log EC50).

For data set [3], the system named is rat isolated aortic rings. Kind of data set: Protection against endothelium damage induced by oxidised LDL, acetylcholine dilatation (Protocol 3). As to conditions: ox-LDL 0.3 mg protein/ml; β-estradiol 10 pg/ml, Cpd. 5 300 ng/ml, Cpd. 7 1 μg/ml, Cpd. 8 and 12 3 μg/ml. As for the experimental part:
as §1
Full concentration response curves to phenylephrine were constructed from which the concentration giving a submaximal contraction of approximately 80% was selected (usually 0.3 μM). Tissues were then constricted with phenylephrine at the selected concentration and allowed to plateau. Full concentration dilatory curves were then constructed to acetylcholine. […]
Human plasma was obtained from the blood bank. […] The protein content of the final LDL fraction obtained was determined by the simplified protein assay method of Lowry. […]
Contractile responses are expressed in g tension (mean+standard error of the mean). Dilatory responses are expressed as a percentage of the contractile force generated by the pre-constricting agent used. […]

The next data set concerns rat thoracic aorta. Kind of data set: Contractile curves to noradrenaline in rat isolated aortic rings (Protocol 1). Conditions: test compound 1 μg/ml. The procedure: as §1
Full concentration-contractile curves were obtained to noradrenaline (0.1 nM-[…]) in the absence and presence of β-estradiol (1 μg/ml); Cpd. 5 (0.1 and 1 μg/ml); Cpd. 7 (0.1 and 1 μg/ml); Cpd. 8 (0.1 and 1 μg/ml) and Cpd. 12 (1 μg/ml) and the vehicle equi-volume DMSO. Only one compound at any one concentration was tested on any one ring from any one animal.
as §2

Data set [4] concerns IMA-derived human VSMC primed with PDGF BB. The data set is described as follows: PDGF BB-induced VSMC DNA synthesis, proliferation and cell number. As to conditions: Homo sapiens, VSMC, 3 h, read-out: inhibition of PDGF BB-induced DNA synthesis ([3H]-thymidine incorporation). Type of data set: cell-based. The procedure: Cell proliferation was induced by a variety of growth factors such as serum and platelet derived growth factor (PDGF).
Media was changed to LG serum-free DMEM and cells were treated with [^3H]-thymidine at 1 μCi/well for 3 hours. Cells were washed twice with ice cold Dulbecco's PBS. Next, ice cold 0.2M HClO4 (1 ml/well) was added and cells were incubated on ice for 30 min. Cells were then washed three times with 0.5 ml/well of ice cold 0.2M HClO4. Media (0.5 ml/well of 0.2 M NaOH) was replaced and cells were incubate at 37° C. After 1 hour, cells were treated with acetic acid (6%, 0.2 ml/well), transferred to scintillation vials with 3 ml scintillation liquid (Instagel) and counted for 2 min per vial.
The effect of Cpd. 5 and Cpd. 7 was tested further in IMA-derived human VSMC primed with PDGF BB instead of serum. […] (FIG. 12). This effect was equivalent to that observed with estradiol. Cpd.
In further experiments Cpd. […] 7 at 100 nmol/L), indicating ER-mediation. […] 7 (1-100 nmol/L).

Data set [5] is described as follows: Distribution of isoflavones in lipoprotein subfractions of whole plasma. Type of data set: in vitro ADME. The procedure: Cpd. 1 ([…]), was incubated with whole plasma for 0 h, 4 h and 8 h. The different subfractions LDL/VLDL, HDL and protein (lipoprotein free) were then analysed for their Cpd. 1 concentration. Cpd. 1 was used because it had the most similar polarity to the isoflavone synthetic derivatives.

For `O=c1c(-c2ccc(O)cc2)coc2cc(O)cc(O)c12` [Cpd. 3, genistein], in data set [1], the “effect on blood lipid concentrations” value is “no significant effect on blood lipid concentrations”. In addition, in the data set with LDL, the “% Increase in Time” value was determined as 0% and the “Lag Time” value was 20 min.

For `C[C@]12CC[C@@H]3c4ccc(O)cc4CC[C@H]3[C@@H]1CC[C@@H]2O` [β-estradiol, 1,3,5[10]-estratriene-3,17β-diol, reference compound], the “vasodilatory response: effect of high KCl levels” value in data set [2] (KCl 40 mM) is listed as “inhibited”. The “vasodilatory response: effect of nitro-L-arginine (NOLA)” value in data set [2] (NOLA 10 μM) is recorded as “inhibited”. Also, the “vasodilatory response: effect of ODQ” value in data set [2] (ODQ 10 μM) is on record as “inhibited”. For the same molecule, the “vasodilatory response: effect of removal of the endothelium” value in data set [2] (denuded vs intact endothelium) is recorded as “inhibited”. For the same molecule, in data set [2] (indomethacin 10 μM), the “vasodilatory response: effect of indomethacin” value is “did not influence”. Besides, in data set [3], the “protective effect against ox-LDL inhibition of acetylcholine dilatation (in words)” value is on record as “diminished the effect of ox-LDL”. Besides, the “y max, Noradrenaline + Test compound (B)” value with rat thoracic aorta (mean ± SEM) turned out to be 0.22 ± 0.12 g tension. Moreover, the “y max Difference (A − B)” value in the data set with rat thoracic aorta (noradrenaline alone minus noradrenaline + compound) is 2.1 ± 0.31 g tension. Moreover, in data set [4], the inhibition at 0.001 µM was determined as 27%, the inhibition at 0.01 µM is 27% and the inhibition at 0.1 µM came out at 33%.

On to `COc1cc2c(=O)c(-c3ccc(O)cc3)coc2cc1O` [Glycitein], for which, in the data set with LDL, the “% Increase in Time” value was 0% and the “Lag Time” value turned out to be 20 min.

With `COc1ccc(-c2coc3cc(O)cc(O)c3c2=O)cc1` [Biochanin], in the data set with LDL, the “% Increase in Time” value was found to be 0% and the “Lag Time” value is reported as 20 min.

For `O=c1c(-c2ccc(O)cc2)coc2cc(O)ccc12` [Cpd. 1, daidzein], in the data set on LDL, the “% Increase in Time” value stood at 0% and the “Lag Time” value was 19 min. In data set [5], the “amount associated with the lipoproteins, dependence on time and concentration” value is given as “increased with time, but not with concentration”.

Source of the values: patent US20050119301A1, “Treatment of restenosis” (priority 2001, published 2005).
